The values below come from ChEMBL document CHEMBL5528040, “Design and Synthesis of Novel 3-Nitro-1H-1,2,4-triazole-1,2,3-triazole-1,4-disubstituted Analogs as Promising Antitrypanosomatid Agents: Evaluation of In Vitro Activity against Chagas Disease and Leishmaniasis” (J Med Chem, 2024).

The data set can be described thus: Mutagenicity in Salmonella typhimurium TA100 assessed as number of revertant colonies at 50 ug per plate incubated for 90 mins by AMES test (reference value: 88.00 +/- 2.65). The format is toxicity, Salmonella enterica subsp. enterica serovar Typhimurium. Conditions: in vivo, 1.5 h, dose 50 µg.

Consider `O=[N+]([O-])c1ncn(Cc2cn(-c3ccc(OC(F)(F)F)cc3)nn2)n1`, for which the Activity amounted to 104.33.
